In US20180251431A1 (VERTEX PHARMACEUTICALS INCORPORATED, priority 2016, published 2018):

Test system: human microglia
Assay: Reduction in C26:0 LPC in human microglia in vitro
Assay type: cell-based
Details: half maximal reduction in C26:0 LPC
Description: Lysophosphatidylcholine (LPC) VLCFA were generated from straight chain VLCFA (SC-VLCFA) and were used clinically for newborn screening (Vogel et al., Mol. Genet. Metab. (2015) 114(4):599-603). In vitro efficacy studies were performed by measuring LPC VLCFA level (measured as LPC synthesis) in various cell lines, specifically in 1) human HEK cells, 2) patient derived cells, and 3) human microglia, which are disease relevant CNS cells. Compound 87's dose response relationships and IC50 values were measured in HEK cells, primary patient fibroblasts, immortalized patient lymphocytes, and a human microglial cell line. […]
Immortalized human microglia (Applied Biological Materials (ABM); catalog #T0251; Richmond BC, Canada) were grown and sub-cultured following the subculturing protocols from ABM except DMEM (high glucose, pyruvate; LifeTech Cat. No. 11995) was used instead of Prigrow III medium and standard tissue culture grade flasks and plates were used. […] An equal volume of media was used to neutralize the detachment media and the cells were collected and counted. […]
Upon the completion of the compound treatment, the media (with compound treatment) was aspirated from the well. […] The plate was sealed with a plate tape and put at −80° C. for further VLCFA extraction and VLCFA quantitation on LC-MS, as described below.
VLCFA Extraction and Quantitation on LCMS: […]

O=C(Nc1ccn(-c2ccnc(F)c2)n1)C1(c2ccccc2F)CC1 [Compound 87, 1-(2-fluorophenyl)-N-[1-(2-fluoro-4-pyridyl)pyrazol-3-yl]cyclopropanecarboxamide]
IC50: 11 nM
